Assay results: patent US7414042B2, “Method and composition for selectively inhibiting melanoma” (The Board of Trustees of The University of Illinois, priority 1995, dated 2008)
≈ marks a conversion by molar mass, not a printed value. Where two headings read alike, the source gives them in different places.

Legend:
A431 (squamous cells) = assay: Cytotoxicity against cultured human cancer cells (SRB); format: cell-based; details: Homo sapiens, A-431, 72 h; three days incubation, SRB; read-out: ED50 A431
Method: (§1) The plates were incubated for three days. […] Dose response studies were performed to generate ED50 values.

BC-1 (breast) = assay: as above; format: cell-based; details: Homo sapiens, 72 h; three days incubation, SRB; read-out: ED50 BC-1
Method: as §1

COL-2 (colon) = assay: as above; format: cell-based; details: Homo sapiens, Col2, 72 h; three days incubation, SRB; read-out: ED50 COL-2
Method: as §1

HT-1080 (sarcoma) = assay: as above; format: cell-based; details: Homo sapiens, HT-1080, 72 h, three days incubation, read-out: ED50 HT-1080
Method: as §1

[1] = system: KB (human oral epidermoid carcinoma); assay: as above; format: cell-based; details: Homo sapiens, 72 h; three days incubation, SRB; Table 1; read-out: ED50 KB
Method: as §1

LNCaP (prostate) = assay: as above; format: cell-based; details: Homo sapiens, LNCaP, 72 h; three days incubation, SRB; read-out: ED50 LNCaP
Method: as §1

LU-1 (lung) = assay: as above; format: cell-based; details: Homo sapiens, 72 h, three days incubation, read-out: ED50 LU-1
Method: as §1

U373 (glioma) = assay: as above; format: cell-based; details: Homo sapiens, U373 MG, 72 h; three days incubation, SRB; read-out: ED50 U373
Method: as §1

ZR-75-1 (breast) = assay: as above; format: cell-based; details: Homo sapiens, ZR-75-1, 72 h; three days incubation, SRB; read-out: ED50 ZR 75-1
Method: as §1

MEL-2 (melanoma) = assay: Cytotoxicity against cultured human melanoma cells (SRB); format: cell-based; details: Homo sapiens, MEL2, 72 h, three days incubation, SRB; Table 1 and text; read-out: ED50 MEL-2
Method: as §1

[2] = system: human melanoma and nonmelanoma cancer cell lines
Method: (§2) In the following Table 1, the extracted betulinic acid and the other pure compounds were tested for cycotoxity against the following cultured human cell lines: A431 (squamous cells), BC-1 (breast), COL-2 (colon), HT-1080 (sarcoma), KB (human oral epidermoid carcinoma), LNCaP (prostate), LU-1 (lung), MEL-2 (melanoma), U373 (glioma) and ZR-75-1 (breast).
(§3) Cytotoxicity of the crude extracts and purified compounds was determined in a number of cultured human cancer cell lines. The cells were cultured in appropriate media and under standard conditions. To maintain logarithmic growth, the media were changed 24 hours prior to cytotoxic assays. On the day of the assay, the cells were harvested by trypsinization, counted, diluted in media, and added to 96-well plates containing test compounds dissolved in DMSO; the final DMSO concentration was 0.05%.
(§4) The plates were incubated for three days. Following the incubation period, the cells were fixed and stained with sulforhodamine B (SRB) dye. The bound dye was liberated with Tris base, and the OD515 was measured on an ELISA reader. The growth of the betulinic acid-treated cells was determined by the OD515 values, and the growth was compared to the OD515 values of DMSO-treated control cells. Dose response studies were performed to generate ED50 values.
(§5) The biological evaluation of the derivatives focused on the activity against human melanoma cell lines. In particular, the following betulinic acid derivatives were prepared and tested for cytotoxicity profile against human melanoma cell lines and against a number of selected nonmelanoma cell lines.

[3] = system: human melanoma and nonmelanoma cancer cell lines; assay: Cytotoxicity profile across the panel of human cancer cell lines; details: Table 1 panel
Method: as §2, §3, §4, §5

| SMILES | IC50 (A431 (squamous cells)) | IC50 (BC-1 (breast)) | IC50 (COL-2 (colon)) | IC50 (HT-1080 (sarcoma)) | IC50 [1] | IC50 (LNCaP (prostate)) | IC50 (LU-1 (lung)) | IC50 (U373 (glioma)) | IC50 (ZR-75-1 (breast)) | IC50 (MEL-2 (melanoma)) | cytotoxic activity profile, cell-type selectivity [2] | cytotoxic activity profile, cell-type selectivity [3] |
| --- | --- | --- | --- | --- | --- | --- | --- | --- | --- | --- | --- | --- |
| Cc1c2ccncc2c(C)c2c1[nH]c1ccccc12 [Ellipticine] | 0.5 µg/mL (≈ 2.03 µM) | 0.2 µg/mL (≈ 0.812 µM) | 0.3 µg/mL (≈ 1.22 µM) | 1.8 µg/mL (≈ 7.31 µM) | 0.04 µg/mL (≈ 0.162 µM) | 0.8 µg/mL (≈ 3.25 µM) | 0.02 µg/mL (≈ 0.0812 µM) | 1.6 µg/mL (≈ 6.5 µM) | 0.9 µg/mL (≈ 3.65 µM) | 0.9 µg/mL (≈ 3.65 µM) | relatively intense, nonselective cytotoxic activity | – |
| CC[C@]1(O)C[C@@H]2CN(CCc3c([nH]c4ccccc34)[C@@](C(=O)OC)(c3cc4c(cc3OC)N(C)[C@H]3[C@@](O)(C(=O)OC)[C@H](OC(C)=O)[C@]5(CC)C=CCN6CC[C@]43[C@@H]65)C2)C1 [Vinbiastine, vinblastine] | 0.05 µg/mL (≈ 0.0617 µM) | 0.06 µg/mL (≈ 0.074 µM) | 0.01 µg/mL (≈ 0.0123 µM) | 0.02 µg/mL (≈ 0.0247 µM) | 0.04 µg/mL (≈ 0.0493 µM) | 0.1 µg/mL (≈ 0.123 µM) | 0.02 µg/mL (≈ 0.0247 µM) | 1.1 µg/mL (≈ 1.36 µM) | 0.3 µg/mL (≈ 0.37 µM) | 0.01 µg/mL (≈ 0.0123 µM) | – | relatively intense, nonselective cytotoxic activity |
